According to ChEMBL document CHEMBL5584359, “Discovery and Preclinical Profile of ALG-055009, a Potent and Selective Thyroid Hormone Receptor Beta (THR-β) Agonist for the Treatment of MASH” (J Med Chem, 2024):
pEC50, pIC50: −log10 of the molar value. Activity calls are given as the source filed them. The calls are words filed in the database; no cut-off is given here.

Columns and labels:
[1] = molecular target: T1, UDP-glucuronosyltransferase 1A1 (Homo sapiens, UniProt P22309); assay: Inhibition of human recombinant UGT1A1 in presence of UDPGA cofactor
T1 sequence (P22309 whole entry): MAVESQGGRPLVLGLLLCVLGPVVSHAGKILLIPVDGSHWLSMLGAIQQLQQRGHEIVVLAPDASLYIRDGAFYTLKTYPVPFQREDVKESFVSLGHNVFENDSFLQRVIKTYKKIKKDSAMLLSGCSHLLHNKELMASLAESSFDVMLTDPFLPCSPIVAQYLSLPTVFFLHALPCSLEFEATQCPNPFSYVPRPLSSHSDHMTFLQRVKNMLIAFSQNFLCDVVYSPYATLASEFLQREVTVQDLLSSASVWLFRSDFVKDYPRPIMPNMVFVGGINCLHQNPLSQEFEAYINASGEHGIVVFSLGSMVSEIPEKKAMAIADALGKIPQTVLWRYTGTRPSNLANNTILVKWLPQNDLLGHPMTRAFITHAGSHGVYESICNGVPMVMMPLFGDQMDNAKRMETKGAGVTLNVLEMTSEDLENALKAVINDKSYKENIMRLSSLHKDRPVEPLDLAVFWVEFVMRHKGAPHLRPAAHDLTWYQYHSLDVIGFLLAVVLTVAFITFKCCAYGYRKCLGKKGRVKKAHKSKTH

[2] = molecular target: Sodium channel protein type 5 subunit alpha (Homo sapiens, UniProt Q14524); assay: Inhibition of Nav1.5 (unknown origin)
Sodium channel protein type 5 subunit alpha, sequence (Q14524 whole entry): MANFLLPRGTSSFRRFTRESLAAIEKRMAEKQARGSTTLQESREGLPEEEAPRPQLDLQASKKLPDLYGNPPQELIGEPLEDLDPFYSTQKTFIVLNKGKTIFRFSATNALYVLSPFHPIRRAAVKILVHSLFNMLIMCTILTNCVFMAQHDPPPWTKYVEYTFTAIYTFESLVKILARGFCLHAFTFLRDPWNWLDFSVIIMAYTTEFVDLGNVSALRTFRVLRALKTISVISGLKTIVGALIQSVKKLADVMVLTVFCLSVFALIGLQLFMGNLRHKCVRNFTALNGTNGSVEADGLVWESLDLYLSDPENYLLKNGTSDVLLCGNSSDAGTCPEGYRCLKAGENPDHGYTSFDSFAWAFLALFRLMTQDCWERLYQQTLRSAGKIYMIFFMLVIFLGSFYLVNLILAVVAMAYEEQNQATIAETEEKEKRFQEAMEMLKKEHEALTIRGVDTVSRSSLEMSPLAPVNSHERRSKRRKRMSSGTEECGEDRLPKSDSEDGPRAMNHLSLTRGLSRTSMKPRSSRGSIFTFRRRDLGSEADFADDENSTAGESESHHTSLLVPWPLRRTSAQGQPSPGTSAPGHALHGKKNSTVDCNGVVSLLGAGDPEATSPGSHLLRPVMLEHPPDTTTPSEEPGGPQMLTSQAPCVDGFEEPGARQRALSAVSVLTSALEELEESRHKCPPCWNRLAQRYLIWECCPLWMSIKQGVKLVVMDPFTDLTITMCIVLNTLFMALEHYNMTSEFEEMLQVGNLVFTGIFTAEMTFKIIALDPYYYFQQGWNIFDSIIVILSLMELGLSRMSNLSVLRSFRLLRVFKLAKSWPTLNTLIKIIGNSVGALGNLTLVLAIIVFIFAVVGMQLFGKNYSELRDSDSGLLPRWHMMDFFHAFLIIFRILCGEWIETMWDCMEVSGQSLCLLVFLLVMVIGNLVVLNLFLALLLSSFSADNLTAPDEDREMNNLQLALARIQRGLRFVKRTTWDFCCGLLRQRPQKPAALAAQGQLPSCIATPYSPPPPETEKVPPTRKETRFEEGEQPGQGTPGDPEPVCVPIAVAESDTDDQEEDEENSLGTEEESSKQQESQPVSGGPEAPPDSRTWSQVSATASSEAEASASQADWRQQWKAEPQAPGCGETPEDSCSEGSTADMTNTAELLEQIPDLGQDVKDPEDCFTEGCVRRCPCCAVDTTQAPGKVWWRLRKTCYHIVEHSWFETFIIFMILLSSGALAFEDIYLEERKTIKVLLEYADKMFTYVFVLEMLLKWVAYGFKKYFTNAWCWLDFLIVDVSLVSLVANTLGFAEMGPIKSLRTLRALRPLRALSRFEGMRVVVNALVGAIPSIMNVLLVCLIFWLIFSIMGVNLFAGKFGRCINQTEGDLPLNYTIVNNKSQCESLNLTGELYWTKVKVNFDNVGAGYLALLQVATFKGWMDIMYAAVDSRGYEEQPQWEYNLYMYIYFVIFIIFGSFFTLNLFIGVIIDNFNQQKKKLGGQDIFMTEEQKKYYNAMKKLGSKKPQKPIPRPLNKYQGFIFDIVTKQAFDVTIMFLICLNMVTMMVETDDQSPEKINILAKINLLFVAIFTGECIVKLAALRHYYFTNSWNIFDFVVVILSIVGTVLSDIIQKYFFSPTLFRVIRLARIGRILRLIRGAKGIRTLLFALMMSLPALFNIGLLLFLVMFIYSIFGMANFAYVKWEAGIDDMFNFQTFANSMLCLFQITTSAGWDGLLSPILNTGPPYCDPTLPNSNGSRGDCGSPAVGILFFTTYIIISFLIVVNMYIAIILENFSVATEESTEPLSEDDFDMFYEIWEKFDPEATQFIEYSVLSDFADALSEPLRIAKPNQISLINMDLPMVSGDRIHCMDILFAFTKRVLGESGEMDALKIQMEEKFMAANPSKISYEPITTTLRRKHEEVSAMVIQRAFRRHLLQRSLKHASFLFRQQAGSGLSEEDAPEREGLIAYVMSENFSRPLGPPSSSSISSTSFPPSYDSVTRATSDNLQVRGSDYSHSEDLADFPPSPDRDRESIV

[3] = molecular target: Voltage-dependent L-type calcium channel subunit alpha-1C (Homo sapiens, UniProt Q13936); assay: Inhibition of CaV1.2 (unknown origin)
Voltage-dependent L-type calcium channel subunit alpha-1C, sequence (Q13936 whole entry): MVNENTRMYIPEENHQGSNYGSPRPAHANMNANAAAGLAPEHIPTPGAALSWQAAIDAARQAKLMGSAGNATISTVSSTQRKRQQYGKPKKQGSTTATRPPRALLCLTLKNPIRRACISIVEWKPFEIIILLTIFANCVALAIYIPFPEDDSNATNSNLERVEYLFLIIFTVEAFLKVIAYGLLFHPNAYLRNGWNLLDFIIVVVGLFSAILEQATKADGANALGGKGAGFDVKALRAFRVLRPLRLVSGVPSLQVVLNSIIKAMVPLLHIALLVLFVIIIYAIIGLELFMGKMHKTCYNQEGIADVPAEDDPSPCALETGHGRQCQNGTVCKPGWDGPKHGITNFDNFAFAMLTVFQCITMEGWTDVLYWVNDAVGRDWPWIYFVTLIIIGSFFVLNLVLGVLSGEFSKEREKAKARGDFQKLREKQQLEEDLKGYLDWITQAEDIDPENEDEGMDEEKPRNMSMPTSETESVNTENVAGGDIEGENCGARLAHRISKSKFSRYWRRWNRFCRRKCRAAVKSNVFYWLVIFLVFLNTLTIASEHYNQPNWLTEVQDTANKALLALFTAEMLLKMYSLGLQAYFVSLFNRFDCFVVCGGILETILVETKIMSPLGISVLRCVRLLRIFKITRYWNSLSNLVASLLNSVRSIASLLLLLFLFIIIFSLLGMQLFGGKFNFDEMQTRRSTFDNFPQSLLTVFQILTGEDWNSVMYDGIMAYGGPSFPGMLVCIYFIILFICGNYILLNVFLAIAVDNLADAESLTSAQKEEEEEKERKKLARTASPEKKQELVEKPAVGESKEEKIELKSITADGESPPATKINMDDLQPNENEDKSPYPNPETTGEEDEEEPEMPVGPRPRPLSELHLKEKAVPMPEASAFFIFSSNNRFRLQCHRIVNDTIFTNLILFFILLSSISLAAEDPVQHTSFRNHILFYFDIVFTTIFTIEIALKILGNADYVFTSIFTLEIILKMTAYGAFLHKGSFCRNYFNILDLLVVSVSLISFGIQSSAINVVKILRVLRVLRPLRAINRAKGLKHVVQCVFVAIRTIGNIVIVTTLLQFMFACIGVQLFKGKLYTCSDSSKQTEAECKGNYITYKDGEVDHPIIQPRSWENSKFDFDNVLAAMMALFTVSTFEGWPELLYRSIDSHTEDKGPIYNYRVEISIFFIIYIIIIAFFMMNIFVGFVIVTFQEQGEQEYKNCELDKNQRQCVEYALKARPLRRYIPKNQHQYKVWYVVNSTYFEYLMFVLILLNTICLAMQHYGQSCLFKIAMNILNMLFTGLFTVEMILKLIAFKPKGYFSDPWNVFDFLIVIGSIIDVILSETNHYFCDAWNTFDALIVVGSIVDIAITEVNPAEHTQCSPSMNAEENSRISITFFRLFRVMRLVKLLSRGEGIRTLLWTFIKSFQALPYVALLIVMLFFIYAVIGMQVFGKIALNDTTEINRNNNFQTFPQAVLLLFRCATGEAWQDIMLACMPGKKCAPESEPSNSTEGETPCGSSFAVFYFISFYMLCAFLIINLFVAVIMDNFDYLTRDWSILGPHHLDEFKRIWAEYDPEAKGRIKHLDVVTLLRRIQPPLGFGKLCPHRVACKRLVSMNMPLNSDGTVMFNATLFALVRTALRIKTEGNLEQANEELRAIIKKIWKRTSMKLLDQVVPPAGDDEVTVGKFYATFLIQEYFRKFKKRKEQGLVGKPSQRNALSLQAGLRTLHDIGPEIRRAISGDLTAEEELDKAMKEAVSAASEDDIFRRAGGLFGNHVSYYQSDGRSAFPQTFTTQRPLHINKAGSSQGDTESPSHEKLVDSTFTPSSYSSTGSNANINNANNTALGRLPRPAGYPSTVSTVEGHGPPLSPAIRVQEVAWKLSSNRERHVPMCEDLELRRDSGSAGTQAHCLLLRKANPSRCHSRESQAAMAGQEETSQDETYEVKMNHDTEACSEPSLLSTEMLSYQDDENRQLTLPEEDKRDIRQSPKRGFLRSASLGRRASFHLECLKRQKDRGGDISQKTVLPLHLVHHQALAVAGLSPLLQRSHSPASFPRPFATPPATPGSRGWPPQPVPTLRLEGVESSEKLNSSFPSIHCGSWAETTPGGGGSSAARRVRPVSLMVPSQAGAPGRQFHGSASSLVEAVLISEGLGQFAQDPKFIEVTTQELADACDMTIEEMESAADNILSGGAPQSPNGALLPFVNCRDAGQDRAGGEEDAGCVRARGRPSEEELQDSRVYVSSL

[4] = molecular target: T2, Solute carrier organic anion transporter family member 1B1 (Homo sapiens, UniProt Q9Y6L6); assay: Inhibition of OATP1B1 (unknown origin) stably transfected in HEK293 cells at 1 to 100 uM; format: cell-based
T2 sequence (Q9Y6L6 whole entry): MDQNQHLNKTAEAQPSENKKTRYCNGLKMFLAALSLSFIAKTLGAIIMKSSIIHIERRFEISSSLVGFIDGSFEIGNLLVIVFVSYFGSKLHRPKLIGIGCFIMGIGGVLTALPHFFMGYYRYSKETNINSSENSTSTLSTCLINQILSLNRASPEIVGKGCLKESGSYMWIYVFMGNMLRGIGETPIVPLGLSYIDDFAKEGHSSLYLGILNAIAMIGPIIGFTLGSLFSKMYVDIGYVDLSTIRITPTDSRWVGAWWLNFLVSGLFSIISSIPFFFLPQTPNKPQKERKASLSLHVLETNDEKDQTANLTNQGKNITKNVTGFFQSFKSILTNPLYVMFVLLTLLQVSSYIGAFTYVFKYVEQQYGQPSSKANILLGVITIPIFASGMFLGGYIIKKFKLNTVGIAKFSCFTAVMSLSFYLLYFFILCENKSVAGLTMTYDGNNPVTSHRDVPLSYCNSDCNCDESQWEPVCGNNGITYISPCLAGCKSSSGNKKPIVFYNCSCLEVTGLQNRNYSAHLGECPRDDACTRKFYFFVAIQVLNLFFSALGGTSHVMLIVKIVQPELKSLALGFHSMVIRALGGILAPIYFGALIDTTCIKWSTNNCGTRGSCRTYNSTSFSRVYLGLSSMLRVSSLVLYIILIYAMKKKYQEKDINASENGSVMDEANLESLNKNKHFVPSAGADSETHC

[5] = Plasma protein binding in human at 2 uM incubated for 4 hrs by rapid equilibrium dialysis
[6] = in vitro; settings: rat, cryopreserved hepatocytes
[7] = in vitro; settings: mouse, cryopreserved hepatocytes
[8] = Apparent permeability of the compound from apical to basolateral side in human Caco-2 cells incubated for 1 hr
[9] = molecular target: CYP2C9 (Homo sapiens, UniProt P11712); assay: Inhibition of CYP2C9 in human liver microsomes at 10 uM in presence of NADPH relative to control
CYP2C9, sequence (P11712 whole entry): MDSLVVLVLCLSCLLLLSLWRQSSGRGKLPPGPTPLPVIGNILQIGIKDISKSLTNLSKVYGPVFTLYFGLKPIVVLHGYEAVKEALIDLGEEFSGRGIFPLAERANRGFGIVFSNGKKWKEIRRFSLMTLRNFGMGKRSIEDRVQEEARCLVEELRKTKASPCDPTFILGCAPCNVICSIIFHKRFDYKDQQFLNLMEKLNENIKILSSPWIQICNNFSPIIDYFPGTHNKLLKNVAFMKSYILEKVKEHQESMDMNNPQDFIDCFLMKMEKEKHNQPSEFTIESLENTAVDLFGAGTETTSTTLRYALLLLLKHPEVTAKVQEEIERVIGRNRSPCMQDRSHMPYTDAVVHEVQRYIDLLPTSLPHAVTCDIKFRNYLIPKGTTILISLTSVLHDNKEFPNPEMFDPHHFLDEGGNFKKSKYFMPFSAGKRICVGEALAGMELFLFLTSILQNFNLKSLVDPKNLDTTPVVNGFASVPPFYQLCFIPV

[10] = Plasma protein binding in Sprague-Dawley rat at 2 uM incubated for 4 hrs by rapid equilibrium dialysis
[11] = in vitro; settings: human, cryopreserved hepatocytes
[12] = molecular target: T3, CYP2C8 (Homo sapiens, UniProt P10632); assay: Inhibition of CYP2C8 in human liver microsomes at 10 uM in presence of NADPH relative to control
T3 sequence (P10632 whole entry): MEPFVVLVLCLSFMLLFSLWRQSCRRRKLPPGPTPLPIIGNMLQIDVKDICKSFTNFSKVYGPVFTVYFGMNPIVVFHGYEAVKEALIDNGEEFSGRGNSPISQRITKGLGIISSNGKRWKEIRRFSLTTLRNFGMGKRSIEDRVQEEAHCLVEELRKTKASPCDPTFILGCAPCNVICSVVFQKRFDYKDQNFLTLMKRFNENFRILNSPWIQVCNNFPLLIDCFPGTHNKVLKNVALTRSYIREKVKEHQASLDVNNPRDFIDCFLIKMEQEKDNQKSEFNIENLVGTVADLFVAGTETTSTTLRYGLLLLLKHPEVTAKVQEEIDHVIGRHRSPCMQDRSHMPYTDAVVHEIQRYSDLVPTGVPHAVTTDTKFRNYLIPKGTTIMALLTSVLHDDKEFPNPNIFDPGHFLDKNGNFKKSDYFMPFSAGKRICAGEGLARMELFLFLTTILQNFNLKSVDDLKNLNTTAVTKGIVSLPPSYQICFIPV

[13] = Ratio AUC in mouse liver to plasma; settings: other tissue
[14] = system: Rattus norvegicus; assay: Antihypercholesterolemic activity against high fat diet-induced Sprague-Dawley rat model assessed as change in T3 level at 0.15 mg/kg, po measured at 1 to 24 hrs post dose; format: functional; settings: time 1-24 hrs
[15] = in vitro; settings: dog, cryopreserved hepatocytes
[16] = AUC (0 to 24 hrs) in Sprague-Dawley rat at 1.5 mg/kg, po measured for 24 hrs by LC-MS/MS analysis; format: ADME, organism-based; settings: in vivo
[17] = Ratio AUC in rat liver to plasma; settings: other tissue
[18] = Drug concentration in Sprague-Dawley rat plasma at 1.5 mg/kg, po measured for 24 hrs by LC-MS/MS analysis; format: ADME, organism-based
[19] = system: Rattus norvegicus; assay: Antihypercholesterolemic activity against high fat diet-induced Sprague-Dawley rat model assessed as change in T3 level at 1.5 mg/kg, po measured at 1 to 24 hrs post dose; format: functional; settings: time 1-24 hrs
[20] = Drug concentration in Sprague-Dawley rat liver at 1.5 mg/kg, po measured for 24 hrs by LC-MS/MS analysis; format: ADME, organism-based; settings: read-out: Ct
[21] = Drug concentration in Sprague-Dawley rat liver at 5 mg/kg, po measured for 24 hrs by LC-MS/MS analysis; format: ADME, organism-based; settings: read-out: Ct
[22] = Plasma protein binding in Beagle dog at 2 uM incubated for 4 hrs by rapid equilibrium dialysis
[23] = system: Rattus norvegicus; assay: Antihypercholesterolemic activity against high fat diet-induced Sprague-Dawley rat model assessed as change in LDL-C level at 0.15 mg/kg, po measured at 1 to 24 hrs post dose; format: functional; settings: time 1-24 hrs
[24] = system: Rattus norvegicus; assay: Antihypercholesterolemic activity against high fat diet-induced Sprague-Dawley rat model assessed as change in T3 level at 5 mg/kg, po measured at 1 to 24 hrs post dose; format: functional; settings: time 1-24 hrs
[25] = species on record: Rattus norvegicus; assay: Antihypercholesterolemic activity against high fat diet-induced Sprague-Dawley rat model assessed as minimum effective dose measured after 24 hrs post dose; format: functional; settings: read-out: MED
[26] = Effect on CPT1A gene expression in human Huh-7 cells measured for 24 hrs; settings: Huh-7, 24 h
[27] = Plasma protein binding in cynomolgus monkey at 2 uM incubated for 4 hrs by rapid equilibrium dialysis
[28] = Cmax in Sprague-Dawley rat at 1.5 mg/kg, po measured for 24 hrs by LC-MS/MS analysis; format: ADME, organism-based; settings: in vivo
[29] = system: Rattus norvegicus; assay: Antihypercholesterolemic activity against high fat diet-induced Sprague-Dawley rat model assessed as change in LDL-C level at 5 mg/kg, po measured at 1 to 24 hrs post dose; format: functional; settings: time 1-24 hrs
[30] = system: Rattus norvegicus; assay: Antihypercholesterolemic activity against high fat diet-induced po dosed Sprague-Dawley rat model assessed as reduction in TC level measured after 24 hrs post dose; format: functional, organism-based; settings: dose 0.15-5 mg/kg
[31] = system: Rattus norvegicus; assay: Antihypercholesterolemic activity against high fat diet-induced Sprague-Dawley rat model assessed as change in T4 level at 0.15 mg/kg, po measured at 1 to 24 hrs post dose; format: functional; settings: time 1-24 hrs
[32] = system: Rattus norvegicus; assay: Antihypercholesterolemic activity against high fat diet-induced Sprague-Dawley rat model assessed as change in T4 level at 1.5 mg/kg, po measured at 1 to 24 hrs post dose; format: functional; settings: time 1-24 hrs
[33] = Cmax in Sprague-Dawley rat at 5 mg/kg, po measured for 24 hrs by LC-MS/MS analysis; format: ADME, organism-based; settings: in vivo
[34] = in vitro; settings: cynomolgus monkey, cryopreserved hepatocytes
[35] = Drug concentration in Sprague-Dawley rat plasma at 5 mg/kg, po measured for 24 hrs by LC-MS/MS analysis; format: ADME, organism-based
[36] = system: Rattus norvegicus; assay: Antihypercholesterolemic activity against high fat diet-induced Sprague-Dawley rat model assessed as change in T4 level at 5 mg/kg, po measured at 1 to 24 hrs post dose; format: functional; settings: time 1-24 hrs
[37] = system: Rattus norvegicus; assay: Antihypercholesterolemic activity against high fat diet-induced Sprague-Dawley rat model assessed as change in total cholesterol level at 0.15 mg/kg, po measured at 1 to 24 hrs post dose; format: functional; settings: time 1-24 hrs
[38] = system: Rattus norvegicus; assay: Antihypercholesterolemic activity against high fat diet-induced Sprague-Dawley rat model assessed as change in total cholesterol level at 1.5 mg/kg, po measured at 1 to 24 hrs post dose; format: functional; settings: time 1-24 hrs
[39] = system: Rattus norvegicus; assay: Antihypercholesterolemic activity against high fat diet-induced Sprague-Dawley rat model assessed as change in total cholesterol level at 5 mg/kg, po measured at 1 to 24 hrs post dose; format: functional; settings: time 1-24 hrs
[40] = system: Rattus norvegicus; assay: Antihypercholesterolemic activity against high fat diet-induced Sprague-Dawley rat model assessed as change in LDL-C level at 1.5 mg/kg, po measured at 1 to 24 hrs post dose; format: functional; settings: time 1-24 hrs

## CC(C)c1cc(Oc2c(Cl)cc(-n3nc(N)c(=O)[nH]c3=O)cc2Cl)n[nH]c1=O
[1]
  pIC50: 4.43
[2]
  pIC50: < 5.00
[3]
  pIC50: < 5.00
[4]
  pIC50: 4.62

## C#Cc1nn(-c2cc(Cl)c(Oc3cc(C(C)C)c(=O)[nH]n3)c(Cl)c2)c(=O)[nH]c1=O
[5]
  fraction unbound at 4 h, 2 µM: 0.01
[6]
  half-life at 3 h, 1 µM: 1.43 h
[7]
  half-life at 3 h, 1 µM: 1.18 h
[8]; Caco-2
  Papp A→B at 1 h: 0.3 ×10⁻⁶ cm/s
[9]
  inhibition at 10 µM: 61%
[10]
  fraction unbound at 4 h, 2 µM: < 0.002
[11]
  half-life at 3 h, 1 µM: 1.72 h
[12]
  inhibition at 10 µM: 87%

## CC(C)c1cc(Oc2c(Cl)cc(-n3nc(C#N)c(=O)[nH]c3=O)cc2Cl)n[nH]c1=O [RESMETIROM]
[13]
  Kp: 6.3
[14]
  Activity: -4.6%
[15]
  half-life at 3 h, 1 µM: > 6 h
[16]
  AUC(0-t) at 24 h: 9410 ng·h/mL
[17]
  Kp: 6.8
[18]
  concentration at 24 h: 38.2 ng/mL
[19]
  Activity: 1.7%
[5]
  fraction unbound at 4 h, 2 µM: 0.003
[6]
  half-life at 3 h, 1 µM: > 6 h
[20]
  concentration at 24 h: 73.6 ng/g
[7]
  half-life at 3 h, 1 µM: > 6 h
[21]
  concentration at 24 h: 613 ng/g
[22]
  fraction unbound at 4 h, 2 µM: 0.012
[8]; caco-2, 1 h
  Papp: 0.03 10^-6 cm/s
[9]
  inhibition at 10 µM: 49%
[10]
  fraction unbound at 4 h, 2 µM: 0.004
[23]
  Activity: -0.8%
[24]
  Activity: -1.9%
[25]
  minimal effective dose: 0.15 mg/kg
[26]
  pEC50: 6.52
[27]
  fraction unbound at 4 h, 2 µM: 0.005
[11]
  half-life at 3 h, 1 µM: 3.22 h
[28]
  Cmax: 969 ng/mL
[29]
  Activity: -44.2%
[12]
  inhibition at 10 µM: 91%
[30]
  Activity: Active
[31]
  Activity: -18.4%
[32]
  Activity: -15.6%
[33]
  Cmax: 2550 ng/mL
[34]
  half-life at 3 h, 1 µM: 1.85 h
[35]
  concentration at 24 h: 217 ng/mL
[36]
  Activity: -15.7%
[37]
  Activity: 9.5%
[38]
  Activity: -25.8%
[39]
  Activity: -34.5%
[40]
  Activity: -34.8%
